Holding throughout (assay type): physicochemical
Data set [1] in a line: Solubility of KUS121 in PBS buffer at different temperatures (filtrate quantified by HPLC). The settings on record: for solubility of KUS121: detection limit about 1 µg/mL, quantification limit 5 µg/mL; for solubility: PBS buffer solution, aqueous buffer, thermodynamic from solid. As to the method:
A PBS buffer solution comprising 1.6 mg of sodium chloride, 0.229 mg of disodium hydrogen phosphate, 0.04 mg of potassium dihydrogen phosphate, and 0.04 mg of potassium chloride per mL of the solution was prepared, and the temperature of the PBS buffer solution was adjusted to 5°C, 25°C, 40°C, 50°C, and 60°C. KUS121 was added little by little to each solution at the different temperatures and stirred. After stirring for a sufficient time period from the time when some undissolved material appeared, the solution was filtered. As a result of quantifying the filtrate using HPLC, the solubility of KUS121 at each temperature was as follows (detection limit: about 1 µg/mL, quantification limit: 5 µg/mL) .

Data set [2] in a line: Preliminary experiment: soluble concentration of KUS121 in normal PBS buffer. As to the method:
The maximum dose of KUS121 to the vitreous body of the eye is 50 µg/eye, and the liquid volume that can be administered into the vitreous body is preferably about 100 µL or less. […] In view of these premises and the above-mentioned problems, the present inventors have extensively studied to design an injection formulation of KUS121 in a normal PBS buffer that can be administered into the vitreous body, wherein about 50 µg of KUS121 is dissolved in a normal PBS buffer (about 100 µL), i.e., a formulation that allows a concentration setting of 0.5 mg/mL and matches the osmotic pressure in the vitreous body. As a result, the present inventors have conducted the following trials and then have found the following things: i.e., the present inventors first prepared 1 mL of 0.1 mg/mL KUS121 aqueous solution by dissolving KUS121 in water for injection and then adding a PBS buffer solution with about twice the concentration of normal to the KUS121 solution, in which the PBS concentration is 1/5 of the normal concentration. Then, the prepared KUS121 aqueous solution was lyophilized, and 200 µL (0.2 mL) of water for injection [200 µL (0.2 mL) corresponds to 1/5 the volume before the lyophilization] was added to the lyophilized product. […]

A short description of data set [3]: Solubility of KUS121 in water. The conditions noted are these: at 25°C.

`Cc1cc(F)ccc1-c1ccc(N=Nc2cc(S(=O)(=O)[O-])c3ccccc3c2N)cn1.O.O.[Na+]` [KUS121, Sodium 4-amino-3-[6-(4-fluoro-2-methylphenyl)pyridin-3-ylazo]naphthalene-1-sulfonate dihydrate]: the “solubility of KUS121” value in data set [1] (5°C) and in data set [1] (25°C) was “below detection limit” in each case. For the same compound, the solubility in data set [1] (40°C) is 7 µg/mL; in data set [1] (50°C), 47 µg/mL; in data set [1] (60°C) it was 132 µg/mL; in data set [2] (normal PBS buffer solution, aqueous buffer, normal PBS buffer, room temperature, preliminary experiment), not above 10 µg/mL; in data set [3] it was approximately 2800 µg/mL. Further, the “solubility of KUS121 in PBS buffer” value in data set [2] (PBS buffer, result in words) is “extremely low”.

In general, solubility refers to the concentration that dissolves in the medium under given conditions.
